Test system: Pneumocystis carinii
Assay: Treatment of Pneumocystis carinii pneumonia in Sprague-Dawley rats (extent of disease by histologic score)
Type: in vivo, male Sprague-Dawley rats
Details: for Extent of Disease by Histologic Score: number of animals with score 0.5 / Extent of disease by histologic score (combined): number of animals in scoring group 0.5: 0.5 = <10 cysts found per 2 sections; for Extent of disease by histologic score (combined): number of animals in scoring group 0.5 / Extent of disease by histologic score (combined): number of animals in scoring group 1 / Extent of disease by histologic score (combined): number of animals in scoring group 2 / Extent of disease by histologic score (combined): number of animals in scoring group 3 / Extent of disease by histologic score (combined): number of animals in scoring group 4: Table XII composite; for Extent of disease by histologic score (combined): number of animals in scoring group 2: 5-10% of lung involved; for Extent of disease by histologic score (combined): number of animals in scoring group 3: 10-50% of lung involved
Protocol: Induction and Treatment Of Pneumocystis Carinii in Sprague-Dawley Rats
Male Sprague-Dawley rats, barrier raised, non-certified virus free, weighing 150-200g were obtained from Hilltop Laboratories and housed individually. Animals were begun on a low (8%) protein diet (ICN Biomedicals, Cincinnati, OH) and drinking water containing tetracycline (0.5 mg/ml) and dexamethasone (1.0 μg/ml) immediately upon arrival. This treatment was given for the next 8 weeks, monitoring fluid intake daily and weighing animals weekly. Dilutions of the drinking solution were made when animals consumed too much fluid so as to prevent cortisone poisoning. At the beginning of the sixth week, animals were divided into groups of 8 animals each and the test compounds were administered daily by i.v. injection at a dose of 10 mg/kg, unless otherwise noted, for the next 14 days.
Animals were sacrificed at the end of the eighth week by chloroform inhalation and the left lung was removed aseptically and placed in sterile Hank's balanced salts solution without calcium or magnesium (HBSS-) for the ground tissue procedure. The right lung was inflated in situ with 10% […] and removed for histologic examination GMS staining. […]

[1] = 10 mg/kg unless otherwise noted
[2] = 10 mg/kg i.v. daily, 14 days, 1 = scattered cysts, <5% of lung involved
[3] = 10 mg/kg i.v. daily, 14 days, 2 = scattered cysts, 5-10% lung involved or small foci of infection
[4] = 10 mg/kg i.v. daily, 14 days, 3 = scattered cysts, 10-50% of lung involved with some intense areas of infection
[5] = 10 mg/kg i.v. daily, 14 days, 4 = >50% of lung involved with many intense areas of focal infection
[6] = 10 mg/kg, 1 = scattered cysts, <5% of lung involved
[7] = 10 mg/kg, 4 = >50% of lung involved

| SMILES | Efficacy in treating PCP compared with pentamidine [1] | Extent of Disease by Histologic Score: number of animals with score 0.5 (10 mg/kg i.v. daily, 14 days) [animals] | Extent of Disease by Histologic Score: number of animals with score 1 [2] [animals] | Extent of Disease by Histologic Score: number of animals with score 2 [3] [animals] | Extent of Disease by Histologic Score: number of animals with score 3 [4] [animals] | Extent of Disease by Histologic Score: number of animals with score 4 [5] [animals] | Efficacy in treating PCP compared with control [1] | Extent of disease by histologic score (combined): number of animals in scoring group 0.5 (10 mg/kg) [animals] | Extent of disease by histologic score (combined): number of animals in scoring group 1 [6] [animals] | Extent of disease by histologic score (combined): number of animals in scoring group 2 (10 mg/kg, 2 = scattered cysts) [animals] | Extent of disease by histologic score (combined): number of animals in scoring group 3 (10 mg/kg, 3 = scattered cysts) [animals] | Extent of disease by histologic score (combined): number of animals in scoring group 4 [7] [animals] | also measured |
| --- | --- | --- | --- | --- | --- | --- | --- | --- | --- | --- | --- | --- | --- |
| COc1cc(C(=N)N)ccc1OCCCCCOc1ccc(C(=N)N)cc1OC [Example 15] | improved performance in treating pcp | – | – | – | – | – | – | – | – | – | – | – | Extent of Disease by Histologic Score: number of animals with score 0.5 (5 mg/kg i.v. daily, 14 days): 0 animals; Extent of Disease by Histologic Score: number of animals with score 1 (5 mg/kg i.v. daily, 14 days, 1 = scattered cysts, <5% of lung involved): 3 animals; Extent of Disease by Histologic Score: number of animals with score 2 (5 mg/kg i.v. daily, 14 days, 2 = scattered cysts, 5-10% lung involved or small foci of infection): 4 animals; Extent of Disease by Histologic Score: number of animals with score 3 (5 mg/kg i.v. daily, 14 days, 3 = scattered cysts, 10-50% of lung involved with some intense areas of infection): 1 animals; Extent of Disease by Histologic Score: number of animals with score 4 (5 mg/kg i.v. daily, 14 days, 4 = >50% of lung involved with many intense areas of focal infection): 0 animals; Extent of Disease by Histologic Score: number of animals with score 0.5 (Table III, Example 15 (Table XII footnote d: 2.5 mg/kg)): 2 animals; Extent of Disease by Histologic Score: number of animals with score 1 (Table III, Example 15 (Table XII footnote d: 2.5 mg/kg), 1 = <5% of lung involved): 1 animals; Extent of Disease by Histologic Score: number of animals with score 2 (Table III, Example 15 (Table XII footnote d: 2.5 mg/kg), 2 = 5-10% lung involved): 3 animals; Extent of Disease by Histologic Score: number of animals with score 3 (Table III, Example 15 (Table XII footnote d: 2.5 mg/kg), 3 = 10-50% of lung involved): 0 animals; Extent of Disease by Histologic Score: number of animals with score 4 (Table III, Example 15 (Table XII footnote d: 2.5 mg/kg), 4 = >50% of lung involved): 0 animals; Extent of disease by histologic score (combined): number of animals in scoring group 0.5 (tested at 2.5 mg/kg): 2 animals; Extent of disease by histologic score (combined): number of animals in scoring group 1 (tested at 2.5 mg/kg, 1 = scattered cysts, <5% of lung involved): 4 animals; Extent of disease by histologic score (combined): number of animals in scoring group 2 (tested at 2.5 mg/kg, 2 = scattered cysts): 7 animals; Extent of disease by histologic score (combined): number of animals in scoring group 3 (tested at 2.5 mg/kg, 3 = scattered cysts): 1 animals; Extent of disease by histologic score (combined): number of animals in scoring group 4 (tested at 2.5 mg/kg, 4 = >50% of lung involved): 0 animals; Efficacy in treating PCP compared with control (compound at 5 mg/kg): significantly better, at one half the dose, than the control |
| N=C(N)c1ccc(OCCCOc2ccc(C(=N)N)cc2N)c(N)c1 [Example 5] | approximately comparable to pentamidine in efficacy | 2 | 4 | 1 | 0 | 0 | significantly better than the control | 2 | 4 | 1 | 0 | 0 | – |
| N=C(N)c1ccc(OCCCCOc2ccc(C(=N)N)cc2N)c(N)c1 [Example 10] | approximately comparable to pentamidine in efficacy | 2 | 5 | 1 | 0 | 0 | significantly better than the control | 2 | 5 | 1 | 0 | 0 | – |
| N=C(N)c1cccc(OCCCCCCOc2cccc(C(=N)N)c2)c1 [Example 29] | – | 1 | 4 | 1 | 2 | 0 | – | 1 | 4 | 1 | 2 | 0 | – |
| c1cc(C2=NCCN2)ccc1OCCCCCOc1ccc(C2=NCCN2)cc1 [Example 30] | comparable to or perhaps slightly better than pentamidine | 5 | 3 | 0 | 0 | 0 | – | 5 | 3 | 0 | 0 | 0 | – |
| N=C(N)c1ccc(NCCCCCCNc2ccc(C(=N)N)cc2)cc1 [Example 39] | – | 2 | 1 | 0 | 0 | 0 | – | – | – | – | – | – | – |
| N=C(N)c1ccc(NCCCCCNc2ccc(C(=N)N)cc2N)c(N)c1 [Example 19] | not as good as pentamidine in controlling pcp | 0 | 2 | 4 | 2 | 0 | better than the control | 3 | 2 | 3 | 0 | 0 | – |
| N=C(N)c1ccc(NCCCNc2ccc(C(=N)N)cc2)cc1 [Example 7] | better than or equal to pentamidine | 5 | 1 | 2 | 0 | 0 | – | 5 | 1 | 2 | 0 | 0 | Efficacy in treating PCP compared with related compounds of the series (effect of chain length or substituent): most effective |
